# In patent publication US20050032750A1, “Treating androgen deficiency in female (ADIF)-associated conditions with SARMS” (priority 2003, published 2005):
# Experiments:
# [1] = system: ovariectomized (OVX) rat model of postmenopausal bone loss; experiment: Ex vivo DEXA analysis of L2-L4 vertebrae BMD; assay type: in vivo; conditions: 120 days
# Method: (§1) One hundred twenty female Sprague-Dawley rats were purchased from Harlan (Indiapolis, Ind.). The animals were housed three per cage and were allowed free access to tap water and commercial rat chow (Harlan Teklad 22/5 rodent diet—8640). During the course of the study, the animals were maintained on a 12 hr light:dark cycle. This study was reviewed and approved by the Institutional Laboratory Care and Use Committee of The Ohio State University. […] Dosing solutions were prepared daily by dissolving drug in dimethyl sulfoxide (DMSO) and diluting in polyethylene glycol 300 (PEG 300). All doses were administered for 120 days via daily subcutaneous injections in a volume of 0.20 ml.
# Immediately following the whole body DEXA scan on day 120, groups 1-11 were sacrificed, and the lumbar vertebrae, femurs, and tibia were excised and cleared of soft tissue. Group 12 was sacrificed at day 210. The excised bones were scanned through a 3 in deep room temperature water bath, to simulate soft tissue and prevent beam-hardening effects. The L2-L4 vertebrae were selected as a region of interest and analyzed for BMD by DEXA.
# (§2) The results were analyzed using Tukey's honestly significant difference method in a one-way analysis of variance and expressed as mean ±S.E.M. Significance was reported when P<0.05. SPSS 11.5.0 (Chicago, Ill.) was used to analyze the results.
# [2] = system: ovariectomized (OVX) rat model of postmenopausal bone loss; experiment: Femoral pQCT analysis of mid-shaft cortical content; assay type: in vivo; conditions: 120 days
# Method: as §1
# (§3) The right femurs from groups 5, 6, 7, 9, 10, and 12 were sent to Skeletech, Inc. (Bothell, Wash.) for pQCT analysis and biomechanical testing. The femur was subject to pQCT scan using a Stratec XCT RM and associated software (Stratec Medizintechnik GmbH, Pforzheim, Germany. Software version 5.40 C). The femur was scanned at the mid-shaft. The position was verified using scout views and scan results from one 0.5 mm slice perpendicular to the long axis of the femur. Cortical bone mineral content was analyzed. After pQCT analysis, the de-fleshed whole femur was used in the three point bending test. The femur was placed on the lower supports of a three point bending fixture with anterior side facing downward in an Instron Mechanical Testing Machine (Instron 4465 retrofitted to 5500). The upper loading device was aligned to the center of the femoral shaft. The load was applied at a constant displacement rate of 6 mm/min until the femur broke. The location of maximal load was selected manually and values were calculated by machine's software (Merlin II, Instron). Maximum load was measured directly by the mechanical testing machine. The length between two supports was set to 14mm.
# as §2
# [3] = system: ovariectomized (OVX) rat model of postmenopausal bone loss; experiment: Femoral three point bending test (maximum load); assay type: in vivo; conditions: OVX rats, 120 days
# Method: as §1, §3
# The results were analyzed using Tukey's honestly significant difference method in a one-way analysis of variance and expressed as mean ±S.E.M. Significance was reported when P<0.05. […]
# [4] = system: ovariectomized (OVX) rat model of postmenopausal bone loss; experiment: Whole body DEXA analysis (BMD, percent fat mass, body weight) in OVX rat model; assay type: in vivo; conditions: for change in whole body BMD between day 0 and day 120: 120 days; for body weight gain: day 0 to 120
# Method: as §1
# Total body bone mineral density (BMD), percent fat mass (FM), and body weight (BW) were determined by dual energy x-ray absorptiometry (DEXA) (GE, Lunar Prodigy™) using the small animal software (Lunar enCORE, version 6.60.041) on days 0 and 120. Total body data was obtained by selecting an area encompassing the entire animal as the region of interest during data processing. For scanning, the animals were anesthetized with ketariine:xylazine (87:13 mg/kg).
# as §2
# [5] = system: myosin heavy chain (MHC) IIb mRNA; experiment: Myosin heavy chain (MHC) IIb mRNA expression in masseter muscle by RT-PCR; assay type: in vivo, rat; conditions: intact female rats, untreated control = 100%
# Excerpt: MHC is the predominant protein in skeletal muscle encoded by a multigene family expressed in a tissue-specific and developmentally regulated manner. In steady state, MRNA expression usually parallels the pattern of MHC protein expression. Because transcription of MHC MRNA occurs in advance of MHC protein translation, and the increased sensitivity of RT-PCR compared to western blotting, rapid changes in mRNA expression can be detected and used to analyze the subtle dynamic effects of muscle anabolism.
# The masseter muscle dissected from untreated intact female rats was set as the control level (representing 100%) of MHC IIb expression (FIG. 1A). Intact female rats treated with androgens were evaluated against the untreated controls for the effect of treatment on MHC IIb from masseter.
# [6] = system: ovariectomized female rats; experiment: Bone mineral content by whole body DEXA after ovariectomy (Example 2); assay type: in vivo, rat; conditions: OVX female rats, 30 day treatment period
# castrated male rats = experiment: Androgenic and anabolic effects in castrated male rats; assay type: in vivo, rat
compound,measurement,setting,value
"C[C@]12CCC(=O)C[C@@H]1CC[C@@H]1[C@@H]2CC[C@]2(C)[C@@H](O)CC[C@@H]12 [DHT, dihydrotestosterone, reference compound]",L2-L4 BMD,"[1]; OVX rats, DHT 1 mg/day",only able to partially maintain the L2-L4 BMD
same,L2-L4 BMD,"[1]; intact rats, DHT 1 mg/day",caused a reduction in L2-L4 BMD
same,Cortical Content (CC) of mid-shaft femur,"[2]; OVX rats, DHT 1 mg/day","partially prevented the loss in CC, these results were not significant"
same,femur biomechanical strength (maximum load),[3]; DHT 1 mg/day,prevent the loss in bone strength
same,change in whole body BMD between day 0 and day 120,"[4]; OVX rats, DHT 1 mg/day sc",not significantly different from OVX controls
same,change in whole body BMD between day 0 and day 120,"[4]; intact rats, DHT 1 mg/day sc",prevented the age related increase in BMD
"CCC(=O)O[C@H]1CC[C@H]2[C@@H]3CCC4=CC(=O)CC[C@]4(C)[C@H]3CC[C@]12C [testosterone propionate, reference compound]","transcription of MHC type IIb, % of untreated control",[5],133%
"CC(=O)Nc1ccc(OC[C@](C)(O)C(=O)Nc2ccc([N+](=O)[O-])c(C(F)(F)F)c2)cc1 [Compound VI, S-3-(4-acetylamino-phenoxy)-2-hydroxy-2-methyl-N-(4-nitro-3-trifluoromethyl-phenyl)-propionamide]",bone mineral content compared with intact control or placebo-treated groups,[6],maintained and improved the bone mineral content
same,"transcription of MHC type IIb, % of untreated control",[5],137%
same,"prostate restored, % of intact animals",castrated male rats,34%
same,"seminal vesicles restored, % of intact animals",castrated male rats,28%
same,L2-L4 BMD,"[1]; OVX rats, 0.5 and 3.0 mg/kg dose groups",significantly higher BMD than the OVX control group
same,L2-L4 BMD,"[1]; OVX rats, greater than 0.3 mg/day",not significantly different from intact controls
same,Cortical Content (CC) of mid-shaft femur,"[2]; OVX rats, 1.0 mg/day",completely prevent the loss in CC
same,Cortical Content (CC) of mid-shaft femur,"[2]; OVX rats, 3.0 mg/day",increase the CC in OVX animals above that of intact animals
same,Cortical Content (CC) of mid-shaft femur,"[2]; intact rats, 1 mg/day",not different from intact controls
same,femur biomechanical strength (maximum load),[3]; 1.0 mg/day,prevent the loss of bone strength
same,femur biomechanical strength (maximum load),[3]; 3.0 mg/day,increase in maximum load
same,change in whole body BMD between day 0 and day 120,"[4]; OVX rats, 0.1 mg/day sc",not significantly different from OVX controls
same,percent body fat at day 120,"[4]; OVX rats, 3.0 mg/day",not different from intact controls
same,body weight gain,"[4]; OVX rats, 3.0 mg/day",gained more weight than the other groups
same,percent fat mass at day 120,"[4]; OVX rats, 0.1-3.0 mg/day",dose dependent decrease in percent fat mass
same,body weight gain,"[4]; OVX rats, 0.1-3.0 mg/day",dose-dependent trend in body weight gain
same,change in whole body BMD between day 0 and day 120,"[4]; OVX rats, doses greater than 0.1 mg/day sc",prevent the loss of whole body BMD
same,mean percent fat mass at day 120,"[4]; intact rats, 1 mg/day",lower in intact Compound VI treated animals than intact controls
